Laboratory results published in ChEMBL document CHEMBL1201862, “PubChem BioAssay data set” (2004).
Activity calls are given as the source filed them.

How the values were obtained:
fMet-Leu-Phe receptor = biological target: T1, fMet-Leu-Phe receptor (Homo sapiens, UniProt P21462); assay: formyl peptide receptor binders – dose response (AID 519); format: functional
T1 sequence (P21462 whole entry): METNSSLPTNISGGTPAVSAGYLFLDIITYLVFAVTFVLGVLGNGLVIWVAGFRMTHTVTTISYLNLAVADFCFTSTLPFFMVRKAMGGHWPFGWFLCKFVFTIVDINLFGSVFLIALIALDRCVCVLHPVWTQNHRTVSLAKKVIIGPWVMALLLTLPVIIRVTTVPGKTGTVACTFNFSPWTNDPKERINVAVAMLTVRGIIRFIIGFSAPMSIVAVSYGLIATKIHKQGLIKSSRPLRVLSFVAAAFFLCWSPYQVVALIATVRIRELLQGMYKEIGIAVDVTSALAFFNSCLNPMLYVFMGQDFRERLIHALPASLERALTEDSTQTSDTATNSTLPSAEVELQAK

[1] = viability loss in THP-1 monocytes – THP-1 cells, cytotoxicity control for Vif-APOBEC3G degradation inhibitor project, dose response (AID 1117359); format: functional; settings: THP-1
[2] = biological target: T2, COUP transcription factor 2 (Homo sapiens, UniProt P24468); assay: Luminescence-based cell-based high throughput dose response assay to identify inhibitors of COUP-TFII (NR2F2).; format: functional;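 further: HEK293 cells transiently cotransfected with COUP-TFII expression vector and reporter; luciferase reporter luminescence driven by COUP-TFII from the pX2-168 reporter plasmid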
T2 sequence (P24468 whole entry): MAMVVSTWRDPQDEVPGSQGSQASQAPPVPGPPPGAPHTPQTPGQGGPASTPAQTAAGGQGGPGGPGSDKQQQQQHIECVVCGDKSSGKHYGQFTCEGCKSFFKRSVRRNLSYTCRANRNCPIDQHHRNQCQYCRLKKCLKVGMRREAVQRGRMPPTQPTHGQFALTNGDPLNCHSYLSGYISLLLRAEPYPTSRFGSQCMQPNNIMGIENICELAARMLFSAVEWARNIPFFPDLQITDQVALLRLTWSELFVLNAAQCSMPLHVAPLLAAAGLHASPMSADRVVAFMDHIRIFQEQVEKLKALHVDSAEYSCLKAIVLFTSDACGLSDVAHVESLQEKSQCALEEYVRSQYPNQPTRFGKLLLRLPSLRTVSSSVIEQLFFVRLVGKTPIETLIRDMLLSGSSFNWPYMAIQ

[3] = HEK-293T viability loss after treatment – luminescence, T-cell screen hits, cytotoxicity control for TCR NF-kB inhibitor project, dose response (AID 489026); format: functional, cell-based;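 further: cells exposed to compound about 14 hours before the viability readout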
INS1 = assay: INS-1E survival protection against cytokine death – cell-based, luminescence, retest, dose response (AID 449756); format: functional; settings: Rattus norvegicus;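 further: cell death triggered by IL-1 beta plus TNF-alpha plus IFN-gamma mixture; protective hits raise ATP signal compared with cytokine alone wells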
Caspase-6 = biological target: T3, Caspase-6 (Homo sapiens, UniProt P55212); assay: inhibition of CASP6 peptide cleavage – biochemical, VEID-R110 fluorescence, cherry-pick, dose response (AID 720632)
T3 sequence (P55212 whole entry): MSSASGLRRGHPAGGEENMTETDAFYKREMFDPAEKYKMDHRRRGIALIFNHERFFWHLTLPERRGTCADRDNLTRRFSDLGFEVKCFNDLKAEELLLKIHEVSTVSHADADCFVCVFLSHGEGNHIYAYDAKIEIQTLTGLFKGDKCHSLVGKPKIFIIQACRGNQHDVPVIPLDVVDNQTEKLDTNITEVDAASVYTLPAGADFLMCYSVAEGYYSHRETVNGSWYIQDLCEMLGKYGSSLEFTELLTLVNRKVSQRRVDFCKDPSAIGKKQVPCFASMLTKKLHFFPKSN

[4] = biological target: T4, Endoribonuclease toxin MazF (Escherichia coli K-12, UniProt P0AE70); assay: activation of MazEF endoribonuclease cleavage – biochemical, fluorescence, single-stranded RNA substrate, uHTS hits, dose response (AID 588481); format: functional
T4 sequence (P0AE70 whole entry): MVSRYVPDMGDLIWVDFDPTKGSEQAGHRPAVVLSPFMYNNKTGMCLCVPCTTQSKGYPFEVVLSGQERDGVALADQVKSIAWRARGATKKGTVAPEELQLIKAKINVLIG

[5] = biological target: T4, Endoribonuclease toxin MazF; assay: substrate-only fluorescence increase artefacts – biochemical, single-stranded RNase substrate, counter-screen for MazEF activator project, dose response (AID 588502); format: functional
cells [6] = format: functional, cell-based
cells [7] = format: functional, cell-based; remark: listed apart in the source
[8] = HIV-1 Vif–A3G interaction blockers – biochemical, TR-FRET, GST-Vif 1-94, biotin-A3G peptide, dose response retest, primary screen (AID 1117319); format: functional;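 further: TR-FRET signal of purified GST-Vif binding a biotinylated A3G peptide; inhibitors lower the FRET signal by blocking Vif and A3G binding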
Genome polyprotein = Genome polyprotein (dengue virus type 2, UniProt P29990); assay: flavivirus cap methylation enzyme inhibition – biochemical, confirmation dose response, primary screen (AID 588689); format: functional
Genome polyprotein, sequence (P29990 2492-3391 limits assumed): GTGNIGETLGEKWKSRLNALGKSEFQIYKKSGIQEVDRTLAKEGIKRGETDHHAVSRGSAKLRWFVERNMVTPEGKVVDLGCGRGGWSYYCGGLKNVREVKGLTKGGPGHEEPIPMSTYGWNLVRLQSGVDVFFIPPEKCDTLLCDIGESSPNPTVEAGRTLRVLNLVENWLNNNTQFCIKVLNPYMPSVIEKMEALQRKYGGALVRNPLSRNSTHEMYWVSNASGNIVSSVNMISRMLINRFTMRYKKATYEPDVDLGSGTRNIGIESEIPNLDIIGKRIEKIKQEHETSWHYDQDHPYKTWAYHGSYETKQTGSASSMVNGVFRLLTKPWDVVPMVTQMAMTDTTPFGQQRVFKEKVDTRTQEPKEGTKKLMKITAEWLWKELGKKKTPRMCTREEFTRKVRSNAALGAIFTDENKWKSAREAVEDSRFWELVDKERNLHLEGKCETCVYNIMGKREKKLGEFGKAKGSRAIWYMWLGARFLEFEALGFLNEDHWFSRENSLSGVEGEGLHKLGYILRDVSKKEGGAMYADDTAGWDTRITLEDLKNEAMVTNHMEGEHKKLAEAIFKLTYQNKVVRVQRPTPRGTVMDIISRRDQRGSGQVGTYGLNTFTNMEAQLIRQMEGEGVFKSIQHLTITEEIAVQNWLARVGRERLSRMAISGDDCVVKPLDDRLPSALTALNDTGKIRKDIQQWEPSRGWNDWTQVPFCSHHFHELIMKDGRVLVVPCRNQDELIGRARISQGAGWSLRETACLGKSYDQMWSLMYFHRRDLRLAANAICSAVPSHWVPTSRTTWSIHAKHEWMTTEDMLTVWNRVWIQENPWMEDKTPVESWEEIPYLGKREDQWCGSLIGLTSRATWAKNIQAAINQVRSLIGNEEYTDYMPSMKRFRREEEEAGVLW

[9] = biological target: T5, Apoptotic protease-activating factor 1 (Homo sapiens, UniProt O14727); format: functional
T5 sequence (O14727 whole entry): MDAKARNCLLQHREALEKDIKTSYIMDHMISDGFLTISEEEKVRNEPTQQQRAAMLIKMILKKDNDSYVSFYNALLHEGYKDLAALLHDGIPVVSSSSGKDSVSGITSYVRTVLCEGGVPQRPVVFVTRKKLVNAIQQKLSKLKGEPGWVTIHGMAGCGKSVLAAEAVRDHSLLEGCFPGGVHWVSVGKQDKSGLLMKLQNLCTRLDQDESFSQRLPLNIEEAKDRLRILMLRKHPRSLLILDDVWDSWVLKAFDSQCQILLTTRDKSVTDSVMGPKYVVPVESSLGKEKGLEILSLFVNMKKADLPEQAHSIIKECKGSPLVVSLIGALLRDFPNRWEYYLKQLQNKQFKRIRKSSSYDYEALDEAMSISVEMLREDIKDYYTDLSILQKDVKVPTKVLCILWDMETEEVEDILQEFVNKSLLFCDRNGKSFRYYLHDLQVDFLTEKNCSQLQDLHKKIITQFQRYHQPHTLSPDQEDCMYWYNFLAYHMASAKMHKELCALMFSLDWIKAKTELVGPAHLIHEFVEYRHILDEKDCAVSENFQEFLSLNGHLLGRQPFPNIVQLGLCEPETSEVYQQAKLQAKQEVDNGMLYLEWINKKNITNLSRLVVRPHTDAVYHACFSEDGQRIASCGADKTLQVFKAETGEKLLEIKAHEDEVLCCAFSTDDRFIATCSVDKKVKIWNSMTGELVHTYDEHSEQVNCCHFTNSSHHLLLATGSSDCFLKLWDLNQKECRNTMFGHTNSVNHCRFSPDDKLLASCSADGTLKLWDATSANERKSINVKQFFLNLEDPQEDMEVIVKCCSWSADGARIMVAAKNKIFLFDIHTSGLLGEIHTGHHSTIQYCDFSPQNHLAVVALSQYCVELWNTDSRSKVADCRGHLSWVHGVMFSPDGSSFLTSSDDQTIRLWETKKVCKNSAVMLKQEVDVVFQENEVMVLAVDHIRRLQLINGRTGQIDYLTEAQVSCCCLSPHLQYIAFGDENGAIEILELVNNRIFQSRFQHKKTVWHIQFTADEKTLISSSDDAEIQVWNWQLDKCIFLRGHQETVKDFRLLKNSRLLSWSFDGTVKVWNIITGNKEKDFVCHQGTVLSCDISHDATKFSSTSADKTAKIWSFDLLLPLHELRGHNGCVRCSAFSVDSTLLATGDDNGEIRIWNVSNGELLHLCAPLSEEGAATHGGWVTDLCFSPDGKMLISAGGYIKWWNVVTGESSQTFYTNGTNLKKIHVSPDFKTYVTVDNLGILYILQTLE

[10] = biological target: Induced myeloid leukemia cell differentiation protein Mcl-1 (Homo sapiens, UniProt Q07820); format: functional
Induced myeloid leukemia cell differentiation protein Mcl-1, sequence (Q07820 whole entry): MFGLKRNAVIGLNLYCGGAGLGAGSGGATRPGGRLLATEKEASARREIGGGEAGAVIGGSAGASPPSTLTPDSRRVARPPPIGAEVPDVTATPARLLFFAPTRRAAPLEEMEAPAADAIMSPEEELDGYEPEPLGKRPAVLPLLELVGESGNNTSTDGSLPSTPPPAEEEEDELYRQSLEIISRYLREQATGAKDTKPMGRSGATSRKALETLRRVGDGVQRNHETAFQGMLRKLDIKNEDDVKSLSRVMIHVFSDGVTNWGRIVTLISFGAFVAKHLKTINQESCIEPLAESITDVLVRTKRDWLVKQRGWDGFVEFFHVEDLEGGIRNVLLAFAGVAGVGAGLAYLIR

[11] = Luminescence-based cell-based high throughput dose response assay to identify activators of the DAF-12 from the parasite S. stercoralis (ssDAF-12).; format: functional
Nonstructural protein 1 = Nonstructural protein 1 (Influenza A virus, UniProt Q194T2); format: functional, Influenza A virus (A/California/07/2009(H1N1))
Nonstructural protein 1, sequence (Q194T2 whole entry): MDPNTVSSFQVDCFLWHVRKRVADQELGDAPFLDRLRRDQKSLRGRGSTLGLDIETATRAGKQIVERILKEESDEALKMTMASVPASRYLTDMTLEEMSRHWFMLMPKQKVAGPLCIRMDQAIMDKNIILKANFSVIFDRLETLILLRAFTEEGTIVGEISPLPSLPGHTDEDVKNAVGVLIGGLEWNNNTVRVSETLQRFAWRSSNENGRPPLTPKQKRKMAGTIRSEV

[12] = biological target: T6, Rac GTPase-activating protein 1 (Homo sapiens, UniProt Q9H0H5); assay: blockers of MgcRacGAP-driven Rac1 GTP hydrolysis – biochemical, ADP Hunter fluorescence, primary and confirmatory, confirmation (AID 624330); format: functional
T6 sequence (Q9H0H5 whole entry): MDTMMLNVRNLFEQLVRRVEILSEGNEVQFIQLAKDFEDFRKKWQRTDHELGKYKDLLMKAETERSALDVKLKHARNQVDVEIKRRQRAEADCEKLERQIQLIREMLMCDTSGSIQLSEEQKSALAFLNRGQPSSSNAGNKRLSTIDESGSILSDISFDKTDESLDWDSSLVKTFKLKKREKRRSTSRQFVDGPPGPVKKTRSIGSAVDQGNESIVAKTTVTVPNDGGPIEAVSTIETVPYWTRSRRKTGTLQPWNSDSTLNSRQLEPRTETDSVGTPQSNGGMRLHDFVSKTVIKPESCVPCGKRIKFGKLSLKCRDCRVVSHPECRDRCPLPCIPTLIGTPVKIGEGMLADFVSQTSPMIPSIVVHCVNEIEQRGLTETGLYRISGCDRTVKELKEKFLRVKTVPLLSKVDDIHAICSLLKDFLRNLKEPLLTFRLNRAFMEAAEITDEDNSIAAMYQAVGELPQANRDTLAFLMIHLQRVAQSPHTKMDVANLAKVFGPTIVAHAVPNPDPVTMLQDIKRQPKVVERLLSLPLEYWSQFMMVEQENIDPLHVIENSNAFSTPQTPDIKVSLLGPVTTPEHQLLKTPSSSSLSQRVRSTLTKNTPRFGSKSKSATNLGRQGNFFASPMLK

[13] = activation of miR-122 Renilla sensor silencing – cell-based, Huh7 psiCHECK-miR122, Renilla luciferase, cherry-picked, dose response (AID 651956); format: functional;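 further: huh7 hepatoma cells stably carrying a psiCHECK-2 miR-122 sensor plasmid; renilla luciferase signal reporting endogenous miR-122 activity after 48 h compound exposure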
[14] = blockers of HIV-1 envelope-mediated cell-cell fusion – cherry-pick, dose response (AID 652057); format: functional, cell-based
[15] = HIV-1 AD8 envelope cell-cell fusion blockers – cherry-pick, dose response (AID 652062); format: functional, cell-based;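 further: luciferase signal from cell-cell fusion driven by HIV-1 clade B AD8 Env; potency is for inhibitors of fusion seen as a drop in luminescence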
[16] = blockers of HIV-1 ZM109 envelope-driven cell-cell fusion – HeLa effector, CEM target cells, luciferase, cherry-pick, dose response (AID 652058); format: functional, cell-based;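 further: luciferase signal from HIV-1 Env mediated cell-cell fusion of effector and target cells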
[17] = P. falciparum Dd2 growth inhibitors, dose response, SYBR Green, cherry-picked samples (AID 1159567); format: functional, cell-based

O=C(O)CC1Oc2ccc(Cl)cc2NC1=O (stereo not given)
Ki (fMet-Leu-Phe receptor): > 66.7 µM (inactive)

O=C(NNc1cc(Cl)cc(Cl)c1)c1c(F)cccc1Cl
CC50 [1]: > 40 µM (active)

Cc1ccc(S(=O)(=O)NCc2ccncc2)c(C)c1C
IC50 [2]: 5.99 µM (active)
IC50 [3]: > 80 µM (inactive)
AC50 (INS1): 2.48 µM (active)

COCCN(C(=O)c1cc2c(s1)CCC2)c1c(N)n(CC(C)C)c(=O)[nH]c1=O
AC50 (Caspase-6): 22.4 µM (active)

COc1ccc2nc(SCC(=O)N3CC(=O)Nc4ccccc43)c(C#N)cc2c1
EC50 [4]: > 99 µM (inactive)
EC50 [5]: > 99 µM (inactive)

O=C(Cn1cnc2c(oc3ccccc32)c1=O)NCCc1ccccc1
EC50 (cells [6]): > 29.9 µM (inactive)
IC50 (cells [7]): > 29.9 µM (inactive)

O=C1c2ccccc2C(=O)N1CCC(c1ccc(F)cc1)c1ccco1 (stereo not given)
IC50 [8]: > 100 µM (active)

O=S(=O)(c1c[nH]cn1)N1CCc2ccccc21
Ki (fMet-Leu-Phe receptor): > 66.7 µM (inactive)

CCc1ccc[n+](-c2nc3ccccc3nc2[C-](C#N)C#N)c1
EC50 [4]: 59.2 µM (inactive)
EC50 [5]: > 99 µM (inactive)

COC(=O)CCC(=O)OC1(C)C(=O)C2=CN(C3CCCC3)C(c3ccc(OC)cc3)=CC2=C(Br)C1=O (stereo not given)
IC50 (Genome polyprotein): 33.8 µM (active)
IC50 [9]: 17.4 µM (active)

c1ccc(CCc2nn3c(C4COc5ccccc5O4)nnc3s2)cc1 (stereo not given)
CC50 [1]: > 40 µM (active)

COc1cc(C2Nc3cccc4cccc(c34)N2)cc(OC)c1OC(C)=O
CC50 [1]: > 40 µM (active)
IC50 [10]: 2.8 µM (active)

CC(C)(C)n1nc2c(c1NC(=O)c1ccc(Br)o1)C[S+]([O-])C2 (stereo not given)
IC50 [8]: > 100 µM (active)

CCCCC1=CC2=C(c3ccco3)C(=O)C(C)(OC(=O)c3ccc(OC)cc3)C(=O)C2=CN1CCCCO (stereo not given)
IC50 [8]: > 100 µM (active)

COc1ccc(-n2c(=O)[nH]c3ccccc3c2=O)c(OC)c1
IC50 [8]: > 100 µM (active)

C=CCOc1ccc(C2C(C(=O)c3ccco3)=C(O)C(=O)N2Cc2cccnc2)cc1 (stereo not given)
Ki (fMet-Leu-Phe receptor): 9.7 µM (active)

CCOC(=O)Nc1ccc(OC)cc1S(=O)(=O)N1CCCCC1
Ki (fMet-Leu-Phe receptor): > 66.7 µM (inactive)

CCC(C)N1C(=O)/C(=C\c2ccc(N3CCCCCC3)cc2)C(=O)NC1=S (stereo not given)
IC50 [11]: > 67.5 µM (inactive)

O=C(O)CCNc1cc(N2CCN(C(=O)c3ccco3)CC2)c2noc3c2c1C(=O)c1ccccc1-3
IC50 [9]: 21.4 µM (active)
IC50 (Nonstructural protein 1): 26.9 µM (active)

Cc1cc(NC2CCCC2)n2ncc(-c3ccccc3)c2n1
IC50 [2]: 49.3 µM (inactive)

COc1cc(/C=N/Nc2ccc(C(=O)O)cc2)ccc1O
AC50 (Caspase-6): 11.1 µM (active)
IC50 [12]: 39.9 µM (active)

CCN(C[C@H]1[C@H](c2ccccc2)[C@@H](CO)N1C(=O)C1CC1)C(=O)NC1CCCC1
AC50 [13]: 47.8 µM (active)

CCN(C[C@@H]1[C@@H](c2ccc(C3=CCCCC3)cc2)[C@@H](CO)N1CC1CC1)C(C)=O
AC50 [13]: 31.2 µM (active)

CCCC#Cc1ccc2c(c1)O[C@@H](CN(C)S(=O)(=O)c1cccc(F)c1)[C@@H](C)CN([C@@H](C)CO)S2(=O)=O
AC50 [14]: 4.98 µM (active)
AC50 [15]: 13.3 µM (active)
AC50 [16]: 3.62 µM (active)

Clc1ccc(/C(Cc2nc3ccccc3[nH]2)=N\Nc2ccccc2)cc1
CC50 [1]: > 40 µM (active)

COc1ccccc1-c1ccccc1[C@@H]1[C@@H](C#N)N(C(=O)C2CC2)[C@@H]1CO
AC50 [17]: 17.4 µM (active)

COc1ccc(NC(=O)N(C)C[C@@H]2Oc3cc(-c4ccc(C)cc4)ccc3S(=O)(=O)N([C@@H](C)CO)C[C@@H]2C)cc1
AC50 [17]: 3.21 µM (active)

O=C(N/N=C/c1cc(Br)c(O)c(Br)c1O)c1cccnc1
AC50 (Caspase-6): 22.9 µM (active)
IC50 (Nonstructural protein 1): 15.5 µM (active)
